A short description of this data set: recombinant UMI read abundance after kanamycin selection (control-corrected) (log10(CPM+1)); higher = more efficient recombination; extreme values may be limits of the assay; sequences stand for … in AGTGCAGAGAAAATCGGCCAGTTTTCTCTGCCTGCAGTCCGCATGCCGTGGGACCCCTTGGGTTCTAACCTGTTGCCTAGATTTATGCAGCGGACTGCCTTTCTCCCAAAGTGATAAACCGG…AGGTTGGTTTCACT; site = the 11-nt donor. A digest of the protocol: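 Reported values are log10(CPM+1) from a pooled Escherichia coli screen of donor and donor-binding-loop pairs for the IS621 bridge recombinase. Selection used IPTG (0.07 mM) plus kanamycin, against unselected plating, each in two replicates. Recombinant UMIs were amplified across the donor–target junction, sequenced, converted to CPM, averaged over replicates and scaled by control-derived factors.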

Consider 68 sequences from the supplement of paper PMC11208160.
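Further: IS621 bridge recombinase in Escherichia coli cells against a fixed T5 target plasmid.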

For “GATTATTCATGGACCGGTTTTCCCGGTAATCCGTATTTGCT (site GATTATCCTAG)”, the “recombinant UMI read abundance (log10)” value worked out at 0.

Regarding “GATTATTCATGGACCGGTTTTCCCGGTAATCCGTATTTGCT (site GATTATGCTAG)”, the “recombinant UMI read abundance (log10)” value is 0.

On to “GATTATTCATGGACCGGTTTTCCCGGTAATCCGTATTTGCT (site GATTATTCTAG)”, for which the “recombinant UMI read abundance (log10)” value was determined as 1.96.

For “GATTCACCATGGACCGGTTTTCCCGGTAATCCGTATTTGCG (site GATTCACCTCG)”, the “recombinant UMI read abundance (log10)” value was 0.00637.

Regarding “GATTCCCCATGGACCGGTTTTCCCGGTAATCCGTATTTGGG (site TTAGGTTCTGA)”, the “recombinant UMI read abundance (log10)” value is 0.

On to “GATTCTCCATGGACCGGTTTTCCCGGTAATCCGTATTTGCT (site GATTATCCTAG)”, for which the “recombinant UMI read abundance (log10)” value turned out to be 0.

As for “GATTCTCCATGGACCGGTTTTCCCGGTAATCCGTATTTGCT (site GATTCTCCTAG)”, the “recombinant UMI read abundance (log10)” value came to 0.753.

With “GATTCTCCATGGACCGGTTTTCCCGGTAATCCGTATTTGCT (site GATTGTCCTAG)”, the “recombinant UMI read abundance (log10)” value turned out to be 0.

With “GATTCTCCATGGACCGGTTTTCCCGGTAATCCGTATTTGCT (site GATTTTCCTAG)”, the “recombinant UMI read abundance (log10)” value was determined as 0.

Regarding “GATTGGACATGGACCGGTTTTCCCGGTAATCCGTATTTGGC (site GATTGGACTGA)”, the “recombinant UMI read abundance (log10)” value turned out to be 0.

Regarding “GATTGGACATGGACCGGTTTTCCCGGTAATCCGTATTTGGC (site GATTGGACTGC)”, the “recombinant UMI read abundance (log10)” value was found to be 1.65.

For the sequence “GATTGGACATGGACCGGTTTTCCCGGTAATCCGTATTTGGC (site GATTGGACTGG)”, the “recombinant UMI read abundance (log10)” value worked out at 0.

Take “GATTGGACATGGACCGGTTTTCCCGGTAATCCGTATTTGGC (site GATTGGACTGT)”: the “recombinant UMI read abundance (log10)” value was determined as 1.63.

“GATTGGCCATGGACCGGTTTTCCCGGTAATCCGTATTTGAC (site GATTGGACTGT)”: the “recombinant UMI read abundance (log10)” value is 0.

Consider “GATTGGCCATGGACCGGTTTTCCCGGTAATCCGTATTTGAC (site GATTGGCCTGT)”, for which the “recombinant UMI read abundance (log10)” value was found to be 0.

On to “GATTGGCCATGGACCGGTTTTCCCGGTAATCCGTATTTGAC (site GATTGGGCTGT)”, for which the “recombinant UMI read abundance (log10)” value came out at 0.

As to “GATTGGCCATGGACCGGTTTTCCCGGTAATCCGTATTTGAC (site GATTGGTCTGT)”, the “recombinant UMI read abundance (log10)” value stood at 0.

In the case of “GATTGGCCATGGACCGGTTTTCCCGGTAATCCGTATTTGCA (site GAATGGCCTTG)”, the “recombinant UMI read abundance (log10)” value is 0.

Regarding “GATTGGCCATGGACCGGTTTTCCCGGTAATCCGTATTTGCA (site GACTGGCCTTG)”, the “recombinant UMI read abundance (log10)” value amounted to 0.

With “GATTGGCCATGGACCGGTTTTCCCGGTAATCCGTATTTGCA (site GAGTGGCCTTG)”, the “recombinant UMI read abundance (log10)” value came out at 0.

As to “GATTGGCCATGGACCGGTTTTCCCGGTAATCCGTATTTGCA (site GATTGGCCTTG)”, the “recombinant UMI read abundance (log10)” value stood at 0.00508.

Consider “GATTGGGCATGGACCGGTTTTCCCGGTAATCCGTATTTGAC (site GATTGGACTGT)”, for which the “recombinant UMI read abundance (log10)” value is 0.803.

Consider “GATTGGGCATGGACCGGTTTTCCCGGTAATCCGTATTTGAC (site GATTGGCCTGT)”, for which the “recombinant UMI read abundance (log10)” value came out at 0.

As for “GATTGGGCATGGACCGGTTTTCCCGGTAATCCGTATTTGAC (site GATTGGGCTGT)”, the “recombinant UMI read abundance (log10)” value is 1.51.

Take “GATTGGGCATGGACCGGTTTTCCCGGTAATCCGTATTTGAC (site GATTGGTCTGT)”: the “recombinant UMI read abundance (log10)” value was 0.

Regarding “GATTGGTCATGGACCGGTTTTCCCGGTAATCCGTATTTGAC (site GATTGGACTGT)”, the “recombinant UMI read abundance (log10)” value was determined as 0.

For the sequence “GATTGGTCATGGACCGGTTTTCCCGGTAATCCGTATTTGAC (site GATTGGCCTGT)”, the “recombinant UMI read abundance (log10)” value is 0.

For “GATTGGTCATGGACCGGTTTTCCCGGTAATCCGTATTTGAC (site GATTGGGCTGT)”, the “recombinant UMI read abundance (log10)” value was 0.

With “GATTGGTCATGGACCGGTTTTCCCGGTAATCCGTATTTGAC (site GATTGGTCTGT)”, the “recombinant UMI read abundance (log10)” value came out at 0.

With “GATTTGCCATGGACCGGTTTTCCCGGTAATCCGTATTTGGA (site GATTTGCCTTC)”, the “recombinant UMI read abundance (log10)” value is 0.0059.

“GATTTGGCATGGACCGGTTTTCCCGGTAATCCGTATTTGTG (site AATTTGGCTCA)”: the “recombinant UMI read abundance (log10)” value is 0.142.

For the sequence “GATTTGGCATGGACCGGTTTTCCCGGTAATCCGTATTTGTG (site CATTTGGCTCA)”, the “recombinant UMI read abundance (log10)” value worked out at 0.309.

In the case of “GATTTGGCATGGACCGGTTTTCCCGGTAATCCGTATTTGTG (site GATTTGGCTCA)”, the “recombinant UMI read abundance (log10)” value was found to be 0.152.

For “GATTTGGCATGGACCGGTTTTCCCGGTAATCCGTATTTGTG (site TATTTGGCTCA)”, the “recombinant UMI read abundance (log10)” value was determined as 0.0288.

With “GCAAAAGCATGGACCGGTTTTCCCGGTAATCCGTATTTGCC (site GCAAAAGCTGG)”, the “recombinant UMI read abundance (log10)” value is 0.282.

On to “GCAACCTCATGGACCGGTTTTCCCGGTAATCCGTATTTGCT (site GCAACCTCTAG)”, for which the “recombinant UMI read abundance (log10)” value was determined as 1.91.

For the sequence “GCAACTGCATGGACCGGTTTTCCCGGTAATCCGTATTTGGC (site GCAACTGCTGC)”, the “recombinant UMI read abundance (log10)” value is 1.95.

Take “GCAAGAACATGGACCGGTTTTCCCGGTAATCCGTATTTGAC (site GCAAGAACTGT)”: the “recombinant UMI read abundance (log10)” value stood at 2.57.

As to “GCAAGCGCATGGACCGGTTTTCCCGGTAATCCGTATTTGAT (site GCAAGCGCTAT)”, the “recombinant UMI read abundance (log10)” value worked out at 2.29.

In the case of “GCACCATCATGGACCGGTTTTCCCGGTAATCCGTATTTGTA (site GCACCATCTTA)”, the “recombinant UMI read abundance (log10)” value came to 2.47.

With “GCACGACCATGGACCGGTTTTCCCGGTAATCCGTATTTGGG (site GCACGACCTCC)”, the “recombinant UMI read abundance (log10)” value worked out at 0.0133.

For “GCACGCGCATGGACCGGTTTTCCCGGTAATCCGTATTTGGT (site GCACGCGCTAC)”, the “recombinant UMI read abundance (log10)” value worked out at 1.22.

In the case of “GCAGATTCATGGACCGGTTTTCCCGGTAATCCGTATTTGGG (site GCAGATTCTCC)”, the “recombinant UMI read abundance (log10)” value was 0.609.

On to “GCAGGTACATGGACCGGTTTTCCCGGTAATCCGTATTTGAC (site GAAGGTACTGT)”, for which the “recombinant UMI read abundance (log10)” value is 0.00935.

Regarding “GCAGGTACATGGACCGGTTTTCCCGGTAATCCGTATTTGAC (site GCAGGTACTGT)”, the “recombinant UMI read abundance (log10)” value was found to be 1.91.

On to “GCAGGTACATGGACCGGTTTTCCCGGTAATCCGTATTTGAC (site GGAGGTACTGT)”, for which the “recombinant UMI read abundance (log10)” value stood at 0.

Turning to “GCAGGTACATGGACCGGTTTTCCCGGTAATCCGTATTTGAC (site GTAGGTACTGT)”, the “recombinant UMI read abundance (log10)” value was determined as 2.1.

For the sequence “GCAGTAACATGGACCGGTTTTCCCGGTAATCCGTATTTGCA (site ACAGTATCTTG)”, the “recombinant UMI read abundance (log10)” value was determined as 0.498.

Turning to “GCAGTAACATGGACCGGTTTTCCCGGTAATCCGTATTTGCA (site GCAGTAACTTG)”, the “recombinant UMI read abundance (log10)” value was found to be 2.83.

Regarding “GCAGTCCCATGGACCGGTTTTCCCGGTAATCCGTATTTGCC (site GCAGTCCCTGG)”, the “recombinant UMI read abundance (log10)” value is 0.

As to “GCAGTCGCATGGACCGGTTTTCCCGGTAATCCGTATTTGCG (site GAAGTCGCTCG)”, the “recombinant UMI read abundance (log10)” value was 0.00976.

Turning to “GCAGTCGCATGGACCGGTTTTCCCGGTAATCCGTATTTGCG (site GCAGTCGCTCG)”, the “recombinant UMI read abundance (log10)” value came out at 0.764.

Consider “GCAGTCGCATGGACCGGTTTTCCCGGTAATCCGTATTTGCG (site GGAGTCGCTCG)”, for which the “recombinant UMI read abundance (log10)” value came out at 0.00641.

“GCAGTCGCATGGACCGGTTTTCCCGGTAATCCGTATTTGCG (site GTAGTCGCTCG)”: the “recombinant UMI read abundance (log10)” value is 0.0117.

Turning to “GCAGTCTCATGGACCGGTTTTCCCGGTAATCCGTATTTGCA (site ACAGTATCTTG)”, the “recombinant UMI read abundance (log10)” value was 2.38.

Regarding “GCAGTCTCATGGACCGGTTTTCCCGGTAATCCGTATTTGCA (site GCAGTCTCTTG)”, the “recombinant UMI read abundance (log10)” value worked out at 2.87.

In the case of “GCATATCCATGGACCGGTTTTCCCGGTAATCCGTATTTGAC (site GCATATCCTGT)”, the “recombinant UMI read abundance (log10)” value stood at 1.39.

As to “GCATCGGCATGGACCGGTTTTCCCGGTAATCCGTATTTGCC (site GCATCGGCTGG)”, the “recombinant UMI read abundance (log10)” value turned out to be 0.599.

Consider “GCCAACTCATGGACCGGTTTTCCCGGTAATCCGTATTTGCG (site GCCAACTCTCG)”, for which the “recombinant UMI read abundance (log10)” value amounted to 1.98.

With “GCCAATTCATGGACCGGTTTTCCCGGTAATCCGTATTTGGG (site GCCAATTCTCC)”, the “recombinant UMI read abundance (log10)” value came to 0.183.

With “GCCACAGCATGGACCGGTTTTCCCGGTAATCCGTATTTGCT (site GCCACAGCTAG)”, the “recombinant UMI read abundance (log10)” value is 1.2.

On to “GCCACGCCATGGACCGGTTTTCCCGGTAATCCGTATTTGTA (site ACCACGCCTTA)”, for which the “recombinant UMI read abundance (log10)” value was 0.145.

As to “GCCACGCCATGGACCGGTTTTCCCGGTAATCCGTATTTGTA (site CCCACGCCTTA)”, the “recombinant UMI read abundance (log10)” value was 0.0175.

With “GCCACGCCATGGACCGGTTTTCCCGGTAATCCGTATTTGTA (site GACACGCCTTA)”, the “recombinant UMI read abundance (log10)” value amounted to 0.0176.

Regarding “GCCACGCCATGGACCGGTTTTCCCGGTAATCCGTATTTGTA (site GCAACGCCTTA)”, the “recombinant UMI read abundance (log10)” value amounted to 0.

Regarding “GCCACGCCATGGACCGGTTTTCCCGGTAATCCGTATTTGTA (site GCCAAGCCTTA)”, the “recombinant UMI read abundance (log10)” value is 0.00579.

Consider “GCCACGCCATGGACCGGTTTTCCCGGTAATCCGTATTTGTA (site GCCACACCTTA)”, for which the “recombinant UMI read abundance (log10)” value is 0.00375.

Regarding “GCCACGCCATGGACCGGTTTTCCCGGTAATCCGTATTTGTA (site GCCACCCCTTA)”, the “recombinant UMI read abundance (log10)” value was determined as 0.0213.
